Experiments:
Ba/F3-Flt3 cells [1] = molecular target: T1, Ba/F3-Flt3 cells (Homo sapiens, UniProt P36888, cells depend on it, form not given); test: Ba/F3-Flt3 assay (Alamar Blue); format: cell-based, murine; conditions: without IL3
T1 construct: Ba/F3-flt3 − IL3 pIC50; other: without IL3
T1 sequence (P36888 1-993): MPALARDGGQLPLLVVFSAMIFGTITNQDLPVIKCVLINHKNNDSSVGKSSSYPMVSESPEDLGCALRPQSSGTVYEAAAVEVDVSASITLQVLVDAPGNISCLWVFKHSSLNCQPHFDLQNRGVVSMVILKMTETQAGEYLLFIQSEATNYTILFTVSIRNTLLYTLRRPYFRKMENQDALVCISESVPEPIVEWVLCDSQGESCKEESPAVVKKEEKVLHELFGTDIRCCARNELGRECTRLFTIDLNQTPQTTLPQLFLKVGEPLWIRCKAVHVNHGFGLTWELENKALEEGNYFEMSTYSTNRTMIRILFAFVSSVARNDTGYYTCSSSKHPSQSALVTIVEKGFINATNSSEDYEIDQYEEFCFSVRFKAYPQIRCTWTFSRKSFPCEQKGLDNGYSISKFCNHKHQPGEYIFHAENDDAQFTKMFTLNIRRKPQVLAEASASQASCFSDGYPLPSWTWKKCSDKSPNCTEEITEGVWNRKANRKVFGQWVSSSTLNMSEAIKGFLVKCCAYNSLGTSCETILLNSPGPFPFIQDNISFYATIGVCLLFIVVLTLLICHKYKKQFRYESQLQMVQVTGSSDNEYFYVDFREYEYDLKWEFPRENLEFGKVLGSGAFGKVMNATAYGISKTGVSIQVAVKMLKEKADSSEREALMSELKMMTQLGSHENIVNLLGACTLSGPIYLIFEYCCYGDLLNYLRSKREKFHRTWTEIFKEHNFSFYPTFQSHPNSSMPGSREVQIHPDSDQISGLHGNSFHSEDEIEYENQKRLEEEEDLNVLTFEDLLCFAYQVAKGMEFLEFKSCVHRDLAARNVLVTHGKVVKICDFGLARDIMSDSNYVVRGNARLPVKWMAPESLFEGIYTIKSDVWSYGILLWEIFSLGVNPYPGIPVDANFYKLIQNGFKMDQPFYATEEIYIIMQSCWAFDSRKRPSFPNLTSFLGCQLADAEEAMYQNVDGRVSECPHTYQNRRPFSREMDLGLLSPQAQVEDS
Description: (§1) Ba/F3, a murine interleukin-3 dependent pro-B cell line is increasingly popular as a model system for assessing both the potency and downstream signaling of kinase oncogenes, and the ability of small-molecule kinase inhibitors to block kinase activity. Facilitated by their growth properties. Ba/F3 cells have recently been adapted to high throughput assay formats for compound profiling. Further, several published approaches show promise in predicting resistance to small-molecule kinase inhibitors elicited by point mutations interfering with inhibitor binding (Ba/F3 cells and their use in kinase drug discovery; Markus Warmuth, Sungjoon Kim, Xiang-ju Gu, Gang Xia and Francisco Adria'n; Curr Opin Oncol 19:55-60).
(§2) Ba/F3-Flt3 cells (cultured in phenol red free RPMI-1640, 10% A FCS and 50 μg/ml Gentamycin at 37° C. and 5% 002) were plated at a density of 10000 cells in a total volume of 180 μl medium in a black TC-treated sterile 96-well plate (Corning). After 24 hours, drugs in different dilutions were added to a final volume of 200 μl and at a final DMSO concentration of 0.2% prior to incubation at 37° C., and 5% CO2.
(§3) After 24 h, to each well 40 μl Alamar Blue solution (Aldrich) was added and the cells were further incubated for 4 hours at 37° C. Fluorescence (ex. 544, em. 590 nm) was measured using a fluorescence reader (Labsystems) and IC50's were calculated.
(§4) In the condition containing IL3, 10 ng/ml of murine IL3 (PeproTech) was added during compound incubation.

Ba/F3-Flt3 cells [2] = test: Ba/F3-Flt3 assay (Alamar Blue); format: cell-based, murine; conditions: Mus musculus, 24 h; with 10 ng/ml murine IL3; read-out: Ba/F3-flt3 + IL3 pIC50 (converted)
Description: as §1, §2, §3, §4

- Ba/F3-flt3 − IL3 pIC50 (Ba/F3-Flt3 cells [1]): <5
- IC50 (Ba/F3-Flt3 cells [2]): > 10 µM
Compound: Cc1nc(N)cc(-c2ccn3c(-c4cc(NC(=O)NCC(F)(F)F)cc(OC(C)C)c4)cnc3c2)n1 [Compound F-4, 1-{3-[7-(6-Amino-2-methyl-pyrimidin-4-yl)-imidazo[1,2-a]pyridin-3-yl]-5-isopropoxy-phenyl}-3-(2,2,2-trifluoro-ethyl)-urea]
